# Results from publication PMC3129366 (Chemico-biological interactions, 2011).
# Columns and labels:
# [1] = molecular target: T1, CYP2E1 (Rattus norvegicus, UniProt P05182, species not given); assay: Inhibition of chlorzoxazone 6-hydroxylation in CYP2E1 liver microsomes; conditions: human, microsomes, chlorzoxazone metabolism
# [2] = molecular target: T1, CYP2E1; assay: in vitro; conditions: human, microsomes
# [3] = molecular target: Rabbit CYP2E1 (Oryctolagus cuniculus, UniProt P08682); assay: Inhibition of p-nitrophenol hydroxylation by purified rabbit CYP2E1; type: biochemical
# Rabbit CYP2E1, sequence (P08682 whole entry): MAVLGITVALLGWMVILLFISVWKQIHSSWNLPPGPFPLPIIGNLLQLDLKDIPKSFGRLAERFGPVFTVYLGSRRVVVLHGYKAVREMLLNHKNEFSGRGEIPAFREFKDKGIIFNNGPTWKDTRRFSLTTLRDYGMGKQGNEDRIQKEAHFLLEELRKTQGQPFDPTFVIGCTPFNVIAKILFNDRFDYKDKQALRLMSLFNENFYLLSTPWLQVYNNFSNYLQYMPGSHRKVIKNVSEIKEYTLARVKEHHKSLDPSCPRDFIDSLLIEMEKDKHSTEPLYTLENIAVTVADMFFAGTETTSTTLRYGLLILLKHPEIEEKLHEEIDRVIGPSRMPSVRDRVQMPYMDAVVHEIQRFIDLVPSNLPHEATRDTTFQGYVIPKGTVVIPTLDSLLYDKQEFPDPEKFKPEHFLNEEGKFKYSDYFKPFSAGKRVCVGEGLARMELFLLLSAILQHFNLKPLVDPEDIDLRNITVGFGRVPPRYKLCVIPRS
# [4] = molecular target: CYP2E1 (Rattus norvegicus, UniProt P05182); assay: Inhibition of chlorzoxazone 6-hydroxylation in CYP2E1 liver microsomes; conditions: chlorzoxazone metabolism; for pKi: Log (1/Ki)
# CYP2E1 (Rattus norvegicus, UniProt P05182), sequence (P05182 2-493): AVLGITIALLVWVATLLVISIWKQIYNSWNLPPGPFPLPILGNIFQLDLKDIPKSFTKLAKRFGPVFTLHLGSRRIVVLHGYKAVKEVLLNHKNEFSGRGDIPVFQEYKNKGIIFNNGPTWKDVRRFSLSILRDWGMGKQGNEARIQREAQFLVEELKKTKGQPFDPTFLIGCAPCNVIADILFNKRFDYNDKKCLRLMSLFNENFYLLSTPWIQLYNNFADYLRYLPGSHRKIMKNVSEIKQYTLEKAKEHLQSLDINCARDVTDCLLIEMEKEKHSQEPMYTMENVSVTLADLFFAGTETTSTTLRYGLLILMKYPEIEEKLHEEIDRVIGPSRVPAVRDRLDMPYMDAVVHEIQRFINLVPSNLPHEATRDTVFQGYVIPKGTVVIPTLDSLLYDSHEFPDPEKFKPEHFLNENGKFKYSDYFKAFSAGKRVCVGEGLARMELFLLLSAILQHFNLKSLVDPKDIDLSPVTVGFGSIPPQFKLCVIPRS
# [5] = Ki, substituted pyrazoles, purified rabbit CYP2E1, p-nitrophenol as substrate
# [6] = pH 7.4, pKi±stdev, Table 3 test set
# T1 sequence (P05182 2-493): as above
smiles,measurement,setting,value
O=C(n1ccnc1)C(F)(F)F [1-(trifluoroacetyl)-imidazole],Ki at 10 min,"[1]; pH 7.4, pKi, Log (1/Ki)",251 µM
Cn1ccnc1 [1-methylimidazole],Ki at 10 min,"[1]; pH 7.4, pKi, Log (1/Ki)",6.31 µM
"Cc1cccc(C)n1 [2,6-lutidine]",Ki at 10 min,"[1]; pH 7.4, pKi, Log (1/Ki)",398 µM
Oc1ccc2ccccc2n1 [2-hydroxyquinoline],Ki at 10 min,"[2]; pH 7.4, Ki",931 µM
same,Ki at 10 min,"[2]; pH 7.4, pKi",1000 µM
same,Ki at 10 min,"[2]; pH 7.4, pKi±stdev",1000 µM
Cc1cc[nH]n1 [3-methylpyrazole],Ki,[3]; [5],5.4 µM
Cc1cnc2ccccc2c1 [3-methylquinoline],Ki at 10 min,"[1]; pH 7.4, pKi, Log (1/Ki)",100 µM
CCCOc1cn[nH]c1 [4-O-propylpyrazole],pKi,"[3]; Log (1/Ki), substituted pyrazoles, purified rabbit CYP2E1, p-nitrophenol",6.1
same,Ki,"[3]; substituted pyrazoles, purified rabbit CYP2E1, p-nitrophenol as substrate",0.79 µM
CC(=O)Nc1cn[nH]c1 [4-acetylaminopyrazole],Ki,[3]; [5],5750 µM
Cc1n[nH]cc1Br [4-bromo-3-methylpyrazole],Ki,[3]; [5],3 µM
OCc1c[nH]cn1 [4-hydroxymethylimidazole],Ki at 10 min,"[1]; pH 7.4, pKi, Log (1/Ki)",501 µM
Oc1ccnc2ccccc12 [4-hydroxyquinoline],Ki at 10 min,"[2]; pH 7.4, Ki",592 µM
same,Ki at 10 min,"[2]; pH 7.4, pKi",631 µM
Ic1cn[nH]c1 [4-iodopyrazole],Ki,[3]; [5],1 µM
O=[N+]([O-])c1c[nH]cn1 [4-nitroimidazole],Ki at 10 min,"[1]; pH 7.4, pKi, Log (1/Ki)",12.6 µM
same,Ki at 10 min,[1]; [6],12.6 µM
O=[N+]([O-])c1cn[nH]c1 [4-nitropyrazole],Ki,[3]; [5],21 µM
CCCCCc1cn[nH]c1 [4-pentylpyrazole],Ki,[3]; [5],0.06 µM
CCCc1cn[nH]c1 [4-propylpyrazole],Ki,[3]; [5],0.16 µM
same,Ki,"[3]; pKi±stdev, Table 3 test set, substituted pyrazole, purified rabbit CYP2E1, p-nitrophenol",0.158 µM
Oc1ccc2ncccc2c1 [6-hydroxyquinoline],Ki at 10 min,"[2]; pH 7.4, Ki",218 µM
same,Ki at 10 min,"[2]; pH 7.4, pKi",200 µM
Oc1cccc2cccnc12 [8-hydroxyquinoline],Ki at 10 min,"[1]; pH 7.4, pKi, Log (1/Ki)",79.4 µM
CCCCn1ccnc1 [N-(n-butyl)imidazole],pKi,[4],6.2
COC(=O)c1ccncc1 [methyl isonicotinate],pKi,[4],5.6
same,pKi±stdev,[4]; Table 3 test set,5.6±0.1
COC(=O)c1cccnc1 [methyl nicotinate],Ki at 10 min,"[1]; pH 7.4, pKi, Log (1/Ki)",20 µM
c1cn[nH]c1 [pyrazole],pKi,[4],4.4
c1ccncc1 [pyridine],Ki at 10 min,"[1]; pH 7.4, pKi, Log (1/Ki)",12.6 µM
c1ccc2ncccc2c1 [quinoline],Ki at 10 min,"[1]; pH 7.4, pKi, Log (1/Ki)",63.1 µM
same,Ki at 10 min,[1]; [6],63.1 µM
